Among the data in ChEMBL document CHEMBL5712922, “Synergistic effects of type I PRMT and PARP inhibitors against non-small cell lung cancer cells” (Clin Epigenetics, 2021) are viability values, retold here.

For this test, the system named is A549. Put plainly: Antiproliferative against human A549 cells assessed as viable cells pretreated with MS023 for 24 hrs followed by compound addition at 10 uM measured after for 24 hrs relative to control. The settings on record: A549, 24 h, read-out: Activity.
With `CCCCCCCc1ccc(CCc2cccc(O)c2C(=O)O)cc1`, the viability at 10 µM was 54.2%.
To `O=C(O)c1ccc(O)c2ncccc12` belongs 54.2%.
As to `O=C(c1cncc(Br)c1)N1CCC(N2CCCC2)CC1`, the viability at 10 µM amounted to 54.2%.
For the molecule `N#CC[C@@H](C1CCCC1)n1cc(-c2ncnc3[nH]ccc23)cn1`, the viability at 10 µM is 54.2%.
On to `O=C(c1ccc(Cl)cc1Cl)n1nnc2ccccc21`, for which the viability at 10 µM worked out at 54.2%.
Consider `CN(C)CCCNC(=O)c1ccc(-c2cc(O)c3ncccc3c2)cc1`, for which the viability at 10 µM came out at 54.2%.
With `CN(C)c1ccc(C(=O)NCCCCCCC(=O)NO)cc1`, the viability at 10 µM is 54.2%.
On to `Cc1cc(Cl)ccc1OCCCC(=O)NO`, for which the viability at 10 µM came to 54.2%.
Consider `O=C(O)[C@H](Cc1c[nH]c2ccccc12)N1C(=O)c2ccccc2C1=O`, for which the viability at 10 µM came to 54.2%.
For `Cc1cc(Nc2nc(N[C@@H](C)c3ccc(F)cc3)c(C#N)cc2F)n[nH]1`, the viability at 10 µM turned out to be 54.2%.
Turning to `COc1cc2c(NC3CCN(CC4CCCCC4)CC3)nc(N3CCCN(C(C)C)CC3)nc2cc1OCCCN1CCCCC1`, the viability at 10 µM was 54.2%.
The result for `O=C1NC(=O)/C(=C/c2cccc(C(F)(F)F)c2)S1` reads 54.2%; that for `Cc1sc2c(c1C)C(c1ccc(Cl)cc1)=N[C@@H](CC(=O)OC(C)(C)C)c1nnc(C)n1-2`, 54.2%.
For the molecule `Clc1ccc(N/N=C(\c2ccccc2)c2ccccn2)nc1`, the viability at 10 µM is 54.2%.
Turning to `Cc1cnc(Nc2ccc(N3CCN(C)CC3)cc2)nc1Nc1cccc(S(=O)(=O)NC(C)(C)C)c1`, the viability at 10 µM came to 54.2%.
On to `COc1cc2c(Nc3ccc(NC(=O)c4ccccc4)cc3)ncnc2cc1OCCCN1CCOCC1`, for which the viability at 10 µM amounted to 54.2%.
`N[C@@H]1CCCN(c2c(/C=C3\SC(=O)NC3=O)cccc2-c2ccccc2)C1`: the viability at 10 µM came out at 54.2%.
The result for `CN1CCN(c2cccc(Nc3nc4c(-c5ccc(S(C)(=O)=O)cc5)cccn4n3)c2)CC1` reads 54.2%.
As to `CC(C)N(CCCNC(=O)Nc1ccc(C(C)(C)C)cc1)C[C@H]1O[C@@H](n2ccc3c(N)ncnc32)[C@H](O)[C@@H]1O`, the viability at 10 µM came out at 54.2%.
As for `COc1ccc(Cn2ccc3ccc(C(=O)NO)cc32)cc1`, the viability at 10 µM worked out at 54.2%.
In the case of `CC(=O)N1c2ccc(-c3ccc(C(=O)O)cc3)cc2[C@H](Nc2ccc(Cl)cc2)C[C@@H]1C`, the viability at 10 µM turned out to be 54.2%.
With `COc1ccccc1S(=O)(=O)Nc1ccc2c(c1)CN(C)C(=O)N2`, the viability at 10 µM turned out to be 54.2%.
As for `Cc1cc(Nc2ccc(NC(=O)c3ccc(Nc4ccnc5ccccc45)cc3)cc2)nc(N)n1`, the viability at 10 µM is 54.2%.
The result for `COc1ccc(C(=O)C2CCN(CC(=O)N(Cc3nc4c(c(=O)[nH]3)COCC4)CC3CC3)CC2)cc1` reads 54.2%; that for `O=C(c1ccc(C(=O)N2CCC(N3CCCC3)CC2)c(Nc2ccccc2)c1)N1CCC(N2CCCC2)CC1`, 54.2%.
Regarding `Cc1cc(/N=N/c2ccc(S(=O)(=O)Nc3ccccn3)cc2)c(N)cc1O`, the viability at 10 µM was found to be 54.2%.
In the case of `CC(C)N(CCCNC(=O)Nc1ccc(C(C)(C)C)cc1)C[C@H]1O[C@@H](n2cc(Br)c3c(N)ncnc32)[C@H](O)[C@@H]1O`, the viability at 10 µM came to 54.2%.
As to `C[C@H](NC(=O)CCc1nc2ccccc2c(=O)[nH]1)c1ccccc1`, the viability at 10 µM was found to be 54.2%.
On to `COc1cc2c(cc1OCCCN1CCCC1)N=C(N)C21CCC1`, for which the viability at 10 µM is 54.2%.
For `O=C(NCC1(c2nc(-c3ccccc3)cs2)CCOCC1)c1cccc(-c2noc(C(F)(F)F)n2)c1`, the viability at 10 µM is 54.2%.
`CCOC(=O)Nc1cc(-c2ccc(C)c(NS(C)(=O)=O)c2)nn2c(C)nnc12`: the viability at 10 µM worked out at 54.2%.
In the case of `O=C(O)CNC(=O)c1c(O)c2ccccc2n(Cc2ccccc2)c1=O`, the viability at 10 µM was determined as 54.2%.
On to `O=C(O)CCNc1cc(N2CCc3ccccc3CC2)nc(-c2ccccn2)n1`, for which the viability at 10 µM is 54.2%.
To `COc1cc2nc(N3CCCC3)nc(NCCCCCN3CCCC3)c2cc1OC` belongs 54.2%; to `CCC(CC)n1ccc2c(C(=O)NCc3c(C)cc(C)[nH]c3=O)cc(C#N)cc21`, 54.2%.
To `CCCc1cc2c(N3CCN(C4=NCC(C)(C)S4)CC3)ncnc2s1` belongs 54.2%; to `COc1cc(C)[nH]c(=O)c1CNC(=O)c1c(C)n([C@H](C)C2CCOCC2)c2ccccc12`, 54.2%.
As to `CCS(=O)(=O)N1CCC([C@@H](C)n2c(C)c(C(=O)NCc3c(OC)cc(C)[nH]c3=O)c3ccccc32)CC1`, the viability at 10 µM came out at 54.2%.
`COc1ccc(CCc2nc3cc(-c4c(C)noc4C)ccc3n2C[C@H](C)N2CCOCC2)cc1Cl`: the viability at 10 µM worked out at 54.2%.
Regarding `CCN(c1cc(C#CCN2CCOCC2)cc(C(=O)NCc2c(C)cc(C)[nH]c2=O)c1C)[C@H]1CC[C@H](N(C)CCOC)CC1`, the viability at 10 µM amounted to 54.2%.
For the molecule `CC(C)c1cc2c(N3CCN(C4=NCC(C)(C)S4)CC3)ncnc2s1`, the viability at 10 µM was 54.2%.
For the molecule `CC1=NN(c2ccc(C(=O)O)cc2)C(=O)/C1=C/c1ccc(-c2cc(C)c(C)cc2[N+](=O)[O-])o1`, the viability at 10 µM is 54.2%.
Consider `CCCOc1ccn2c(C(C)=O)cc(-c3ccccc3S(C)(=O)=O)c2c1`, for which the viability at 10 µM was 54.2%.
Consider `O=C(/C=C/N1C[C@H]2C[C@@H]1CN2c1ccccn1)c1ccccc1O`, for which the viability at 10 µM amounted to 54.2%.
`CCn1cc(-c2cccc(C(F)(F)F)c2)c2sc(C(=N)NC3CCS(=O)(=O)CC3)cc2c1=O`: the viability at 10 µM was 54.2%.
`CN1CCc2c(c3ccccc3n2Cc2ccc(C(=O)NO)cc2)C1`: the viability at 10 µM amounted to 54.2%.
As to `COc1cc(-c2cn(C)c(=O)c3cnccc23)cc(OC)c1CN(C)C`, the viability at 10 µM is 54.2%.
Turning to `CCC(CC)(NC(=O)C(C)C)C(=O)N[C@@H](CCCNC(=N)N)C(=O)NC1(C(=O)NC(c2ccc(F)cc2)c2ccc(F)cc2)CCCC1`, the viability at 10 µM is 54.2%.
For the molecule `Cc1cc(C)c(CNC(=O)c2cc(-c3ccc(N4CCN(C)CC4)nc3)cc3c2c(C)cn3C(C)C)c(=O)[nH]1`, the viability at 10 µM was 54.2%.
To `COC(=O)c1ccc2c(c1)nc(NC(=O)c1ccccc1)n2CCCc1ccccc1` belongs 54.2%; to `N#Cc1ccc(-c2csc(NN=C3CCCC3)n2)cc1`, 54.2%.
For `O=C(NC[C@H](O)CN1CCc2ccccc2C1)c1cc(NC2COC2)ncn1`, the viability at 10 µM worked out at 54.2%.
Turning to `O=C(NCC(=O)N1CCCC1)Nc1ccc2cnccc2c1`, the viability at 10 µM is 54.2%.
Consider `Nc1cc(F)ccc1NC(=O)/C=C/c1cnn(C/C=C/c2ccccc2)c1`, for which the viability at 10 µM came out at 54.2%.
To `O=C(COc1cccc2c(=O)[nH]ccc12)c1ccccc1` belongs 54.2%; to `Cc1cc(N2C[C@@H](C)N[C@@H](C)C2)ncc1-c1ccc(-c2nc3c(ccn3C)c(=O)[nH]2)cc1`, 54.2%.
To `NC(=O)C1CCCc2c1[nH]c1ccc(Cl)cc21` (stereo not drawn) belongs 54.2%; to `c1ccc([C@@H]2C[C@H]2NC2CCNCC2)cc1`, 54.2%.
Take `N[C@H]1C[C@@H]1c1ccc(-c2cccc(O)c2)cc1`: the viability at 10 µM is 54.2%.
Regarding `O=C(Nc1ccc(-c2ccnc(Nc3ccc(N4CCOCC4)cc3)n2)cc1)[C@@H]1CCCN1`, the viability at 10 µM was determined as 54.2%.
The result for `Cc1sc2c(c1C)C(c1ccc(Cl)cc1)=N[C@@H](CC(N)=O)c1nnc(C)n1-2` reads 54.2%; that for `O=C(NC[C@H](O)CN1CCc2ccccc2C1)c1ccnc(NC2CCC2)c1`, 54.2%; that for `N[C@H]1CC[C@H](N[C@@H]2C[C@H]2c2ccccc2)CC1`, 54.2%.
Turning to `Fc1cc(-c2cccc3ncc(-c4cnn(C5CCNCC5)c4)nc23)cc(F)c1CN1CCOCC1`, the viability at 10 µM worked out at 54.2%.
On to `COc1cc2ncnc(Nc3ccc(O)c(Br)c3)c2cc1OC`, for which the viability at 10 µM worked out at 54.2%.
For `CCCCCCCCCC(=O)N[C@@H](Cc1c[nH]c2ccccc12)C(=O)N[C@H](CC(N)=O)C(=O)N[C@@H](CC(=O)O)C(=O)N[C@@H]1C(=O)NCC(=O)N[C@@H](CCCN)C(=O)N[C@@H](CC(=O)O)C(=O)N[C@H](C)C(=O)N[C@@H](CC(=O)O)C(=O)NCC(=O)N[C@H](CO)C(=O)N[C@@H]([C@H](C)CC(=O)O)C(=O)N[C@@H](CC(=O)c2ccccc2N)C(=O)O[C@@H]1C`, the viability at 10 µM came out at 54.2%.
To `O=C([C@@H](Cc1cccc(C(F)(F)F)c1)NS(=O)(=O)c1cc(F)c2c(c1)CCNC2)N1CCCC1` belongs 54.2%.
As for `CCN1CCN(C(=O)Cc2ccc(Nc3ncc(F)c(Nc4ccc(C(=O)Nc5ccccc5Cl)cc4)n3)cc2)CC1`, the viability at 10 µM was 54.2%.
Consider `CN(CC[C@H](N)CC(=O)N[C@H]1C=C[C@H](n2ccc(N)nc2=O)O[C@@H]1C(=O)O)C(=N)N`, for which the viability at 10 µM amounted to 54.2%.
To `CC(C)N(CCC(=O)c1ccc2ccccc2c1)Cc1ccccc1` belongs 54.2%.
Turning to `N#C/C(=C\c1ccc(O)c(O)c1)C(=O)NCc1ccccc1`, the viability at 10 µM worked out at 54.2%.
As for `COc1cc2nc(N3CCCN(C)CC3)nc(NC3CCN(Cc4ccccc4)CC3)c2cc1OC`, the viability at 10 µM was 54.2%.
`COc1cc2c(cc1NS(=O)(=O)c1ccc(Br)cc1C)n(C)c(=O)n2C`: the viability at 10 µM came out at 54.2%.
The result for `Nc1nccc2c1ncn2[C@@H]1C=C(CO)[C@@H](O)[C@H]1O` reads 54.2%; that for `O=C(O)c1ccc(CN2CCC(CN[C@@H]3C[C@H]3c3ccccc3)CC2)cc1`, 54.2%.
To `NC1=NC(=O)/C(=C\c2ccc(O)cc2)S1` belongs 54.2%; to `CNNCc1ccc(C(=O)NC(C)C)cc1`, 54.2%.
The result for `CCOC(=O)CCNc1cc(N2CCc3ccccc3CC2)nc(-c2ccccn2)n1` reads 54.2%; that for `CCCOc1ccc(CCc2nc3cc(-c4c(C)noc4C)ccc3n2CCN2CCOCC2)cc1`, 54.2%; that for `CN1CCCN(C(=O)c2cccc(-c3ccc(/C=C4/C(=O)Nc5ccc(Cl)cc54)o3)c2)CC1`, 54.2%.
As to `CCn1c2ccccc2c2cc(CNCc3ccccc3OC)ccc21`, the viability at 10 µM was found to be 54.2%.
In the case of `CN(C)Cc1ccc(-c2nc3cccc4c3n2CCNC4=O)cc1`, the viability at 10 µM was determined as 54.2%.
For `O=C(CCCCCN1C(=O)c2cccc3cccc(c23)C1=O)NO`, the viability at 10 µM turned out to be 54.2%.
